Experimental data taken from patent publication US20220073496A1, “NOVEL QUINOLINE DERIVATIVE INHIBITOR” (Nanjing Transthera Biosciences Co., Ltd., priority 2018, published 2022).

How the values were obtained:
[1] = biological target: T1, H1299 cell pAxl (Homo sapiens, UniProt P30530); test: Inhibitory activity on the cell pAxl (Western Blot); format: cell-based; conditions: H1299 cells, compound 1.1, 3.3, 10, 30 nM, hGAS6 200 ng/mL
T1 construct: endogenous in cells; host or cells: H1299
T1 sequence (P30530 26-894): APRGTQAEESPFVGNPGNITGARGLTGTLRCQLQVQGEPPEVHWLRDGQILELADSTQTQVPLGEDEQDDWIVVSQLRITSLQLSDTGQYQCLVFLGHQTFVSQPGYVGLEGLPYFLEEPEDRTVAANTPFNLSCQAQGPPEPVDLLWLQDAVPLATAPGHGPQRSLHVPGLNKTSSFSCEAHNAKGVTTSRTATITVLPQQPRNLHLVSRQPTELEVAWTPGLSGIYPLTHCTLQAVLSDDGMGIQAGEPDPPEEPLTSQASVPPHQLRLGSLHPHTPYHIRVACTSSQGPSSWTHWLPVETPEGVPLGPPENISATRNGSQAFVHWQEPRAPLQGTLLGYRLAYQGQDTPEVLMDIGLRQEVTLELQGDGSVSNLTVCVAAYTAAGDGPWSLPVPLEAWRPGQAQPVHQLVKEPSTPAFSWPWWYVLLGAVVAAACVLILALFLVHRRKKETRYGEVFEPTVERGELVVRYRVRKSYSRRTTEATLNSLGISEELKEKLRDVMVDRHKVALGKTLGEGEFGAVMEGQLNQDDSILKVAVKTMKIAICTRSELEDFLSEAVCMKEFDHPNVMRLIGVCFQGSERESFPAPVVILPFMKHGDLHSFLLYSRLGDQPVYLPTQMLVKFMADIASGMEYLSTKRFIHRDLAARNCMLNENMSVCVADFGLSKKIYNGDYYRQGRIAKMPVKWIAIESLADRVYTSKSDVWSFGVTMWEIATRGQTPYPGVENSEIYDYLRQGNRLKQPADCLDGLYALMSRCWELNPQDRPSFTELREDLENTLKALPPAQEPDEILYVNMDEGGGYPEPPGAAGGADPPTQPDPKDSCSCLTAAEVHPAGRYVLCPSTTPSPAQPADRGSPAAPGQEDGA
Experimental: Assay 5: Test for Inhibitory Activities of the Compounds of the Present Invention on the Cell pAxl
H1299 is a non-small cell lung cancer cell.
Test substances: the compounds of the present invention, wherein the structures thereof were as described above.
Test equipment: protein electrophoresis apparatus (manufactured by Bio Rad), transfer unit (manufactured by Bio Rad), exposure unit (manufactured by Tanon), CO2, cell incubator (manufactured by Thermo).
The H1299 cells were inoculated in a 6-well plate (containing 10% FBS 1640 medium, 5×10^5 cells per well), and adherent cells were cultivated at 37° C. in a 5% CO2 condition for 18 hours. The cells were starved overnight. Different concentrations of compounds were added. The final compound concentrations were 1.1, 3.3, 10, and 30 nM, and the final DMSO content was 1‰. The negative control wells contained the medium containing 1‰ DMSO. After incubating at 37° C. in a 5% CO2 condition for 60 minutes, hGAS6 (R&D, final concentration 200 ng/mL) was added to each well. After further incubating for 60 minutes, the cell total protein was extracted for Western Blot and the […] values were calculated using GraphPad 5.0 software. The inhibitory activity of the compound on the cell pAxl was examined.

[2] = Stability in liver microsome of mice; format: in vitro ADME; conditions: liver microsomes; Mouse liver microsome 0.5 mg protein/mL, compound 1 μM, 37° C.
Experimental: (§1) Assay 1: Stability assessment of the compounds of the present invention in liver microsome of mice and dogs
(§2) Test substances: the compounds of the present invention, wherein the structures and preparations thereof were as described above.
(§3) The composition of the incubation system:
(§4) Preparation of Test Substances:
(§5) An appropriate amount of the compound was accurately weighed and dissolved in DMSO to prepare a 5.0 mM stock solution. The 5.0 mM stock solution was diluted to 1.0 mM with DMSO, and finally diluted with water to a 10 μM test substance working solution for use (the DMSO content in the reaction system was 0.1%).
(§6) (1) The liver microsome (20 mg protein/mL) was taken out from the −80° C. refrigerator, pre-incubated at 37° C. with a water-bathing constant temperature vibrator for 3 minutes, and melted for use.
(§7) (2) A mixed solution of the incubation system (excluding compounds and β-NADPH) according to the above “composition of the incubation system” for the assay was prepared, and pre-incubated at 37° C. with a water-bathing constant temperature vibrator for 2 minutes.
(§8) (3) Control group (excluding β-NADPH): 30 μL of water and 30 μL of compound working solution (10 μM) were added to 240 μL of the mixed solution of the incubation system of step (2), and vortexed for 30 seconds to mix well. The total reaction volume was 300 μL. A duplicate sample was prepared. The sample was incubated at 37° C. with a water-bathing constant temperature vibrator. The timekeeping began and the sampling time points were set at 0 minute and 60 minutes.
(§9) (4) Sample group: 70 μL of β-NADPH solution (10 mM) and 70 μL of compound working solution (10 μM) were added to 560 μL of the mixed solution of step (2). The total reaction volume was 700 μL. The resulting mixture was vortexed for 30 seconds to mix well. A duplicate sample was prepared. The sample was incubated at 37° C. with a water-bathing constant temperature vibrator. The timekeeping began and the sampling time points were set at 0 minute, 5 minutes, 10 minutes, 20 minutes, 30 minutes, and 60 minutes after timekeeping.
(§10) (5) After vortexing for 3 minutes, the sample was centrifuged at 4000 rpm for 10 minutes.
(§11) (6) 50 μL of the supernatant was taken and 150 μL of water was added. The resulting mixture was vortexed to mix well, and analyzed by LC/MS/MS.
(§12) The half-life (t1/2) and clearance rate (Cl) were calculated using the following first-order kinetic formula:
(§13) Vd=1/protein content in liver microsome
(§14) Note: k was the slope of the logarithm of the remaining amount of the compound versus time, and Vd was the apparent distribution volume.

[3] = Stability in liver microsome of dogs; format: in vitro ADME; conditions: liver microsomes; Dog liver microsome 0.5 mg protein/mL, compound 1 μM, 37° C.
Experimental: as §1, §2, §3, §4, §5, §6, §7, §8, §9, §10, §11, §12, §13, §14

In the case of `COc1cc2nccc(Oc3ncc(NC(=O)c4cn(C5CC5)nc(-c5ccc(F)cc5)c4=O)cn3)c2cc1OC` [Compound 44, 2-cyclopropyl-N-(2-((6,7-dimethoxyquinolin-4-yl)oxy)pyrimidine-5-yl)-6-para-fluorophenyl-5-oxo-2,5-dihydropyridazine-4-carboxamide], the IC50 [1] is reported as 3.3 to 10 nM, the half-life at 1 μM [2] is reported as 2.13 h and the microsomal CLint at 1 μM [2] is reported as 10.8 µL/min/mg. It also gave a half-life at 1 μM [3] of 3.73 h and a microsomal CLint at 1 μM [3] of 6.2 µL/min/mg.
